Patent US20150240204A1, “METHOD FOR POLYCLONAL STIMULATION OF T CELLS BY MOBILE NANOMATRICES” (MILTENYI BIOTEC GMBH, priority 2012, published 2015)

Key:
Format in all cases: cell-based, human
[1] = system: CD8+ T cell subsets and PBMC from melanoma patients; assay: Fold expansion of MART-1 TCR transduced cultures; details: IL2, day 13-15 after stimulation
From the text: CD8^+ T cell subsets from freshly isolated PBMC from melanoma patients were isolated and the stimulated with coated CD3 plus soluble CD28 (CD3+CD28 in the graph) or with CD3/CD28/CD2 coated MACSiBeads (MACSiBeads in the graph) or with CD3/CD28 Nanomatrix in the presence of IL2. After 2 days of stimulation cells have been transduced to express MART-1 TCR. In the graph is reported the fold expansion of each culture at day 13-15 after stimulation.
One important application for activating and expanding T cells and in particular purified cell subsets is their genetic manipulation, e.g. to introduce a certain antigen receptor with specificity for tumor antigens. We have used nanomatrices to activate purified naïve (TN, CD62L+CD45RA+), central memory (TCM, CD62L+CD45RA−) and effector (TEM, CD62L−CD45RA−) T cells and transduced them using a retroviral vector expressing a TCR specific for MART-1, a tumor antigen. To test the relative frequency of transgene expression in these T cell subsets we performed MHC-peptide Class I tetramer staining. All T cell subsets are efficiently transduced (>50%) independent on the stimulatory conditions we tested (FIG. 7). We also compared the in vitro expansion of the transduced T cells. As shown in FIG. 8 after 10 days we observed no differences with regard to expansion of the three subsets under all conditions. […]

[2] = system: naive CD4 and CD8 T cells; assay: Induction of early activation markers CD25/CD69, soluble versus nanomatrix-conjugated CD3
Experimental: (§1) FIG. 6: Comparison of soluble CD3 or CD28 antibodies to CD3 or CD28 antibodies conjugated to nanomatrices. Naive CD4 and CD8 T cells were isolated and stimulated in vitro in the presence of IL-2 using soluble CD3 (0-10000 ng/mL) w/o CD28 (A) or in the presence of soluble CD28 (200 ng/ml) (B) and compared to CD28 conjugated to nanomatrix (200 ng/ml) and analysed for early activation markers CD25/CD69 on day 5 or for expansion (C) on day 7. 2 donors were analysed in duplicates.
IL-2 was added to all cultures. […] In contrast the CD3 coated nanomatrix (100 ng/ml CD3) induced CD25/CD69 expression in 40-70% of the cells.

naive T cells = assay: Expansion of naive T cells, soluble versus nanomatrix-conjugated CD28 in presence of soluble CD3; details: soluble CD3 alone, day 7
Experimental: as §1
We also tested the effect of conjugation of CD28 antibodies to the nanomatrix. Since the effects of costimulation are best visualized under suboptimal CD3 stimulation, we titrated CD28 either soluble or conjugated to the nanomatrix in the presence of soluble CD3 to a culture of naïve T cells. […] In the presence of soluble CD28 however a 2-6 fold expansion was detectable but only at the highest tested dose of CD28 (10000 ng/ml).

In the case of “soluble CD3: soluble anti-CD3 antibody (CD3 antibodies, clone OKT3)”, the fold expansion [1] was 57.61±17.75, the “up-regulation of early activation markers CD25 and CD69” value ([2]; 10-10000 ng/ml, without CD28, IL-2, day 5) was “did not induce any significant up-regulation” and the CD25/CD69 expression ([2]; highest tested doses 100-10000 ng/ml, with soluble CD28 200 ng/ml, IL-2, day 5) was 20-40 % of the cells. For the same substance, the “expansion of naive T cells” value (naive T cells) was “did not induce any expansion”.
